ChEMBL document CHEMBL3046304, “Discovery of a series of novel compounds with moderate anti-avian H5N1 influenza virus activity in chick embryo” (Med Chem Res, 2013)

Key:
[1] = test system: Influenza A virus; assay type: functional
[2] = test system: Influenza A virus; test: Ratio of compound MED to oseltamivir MED for influenza A virus (A/duck/China/QJ/01(H5N1)) infected in chick embryo measured after 5 days by hemagglutination assay; assay type: functional
[3] = target: T1, Neuraminidase (Influenza A virus, UniProt B4URF0); set-up: species or system (A/duck/China/QJ/01(H5N1))
T1 sequence (B4URF0 whole entry): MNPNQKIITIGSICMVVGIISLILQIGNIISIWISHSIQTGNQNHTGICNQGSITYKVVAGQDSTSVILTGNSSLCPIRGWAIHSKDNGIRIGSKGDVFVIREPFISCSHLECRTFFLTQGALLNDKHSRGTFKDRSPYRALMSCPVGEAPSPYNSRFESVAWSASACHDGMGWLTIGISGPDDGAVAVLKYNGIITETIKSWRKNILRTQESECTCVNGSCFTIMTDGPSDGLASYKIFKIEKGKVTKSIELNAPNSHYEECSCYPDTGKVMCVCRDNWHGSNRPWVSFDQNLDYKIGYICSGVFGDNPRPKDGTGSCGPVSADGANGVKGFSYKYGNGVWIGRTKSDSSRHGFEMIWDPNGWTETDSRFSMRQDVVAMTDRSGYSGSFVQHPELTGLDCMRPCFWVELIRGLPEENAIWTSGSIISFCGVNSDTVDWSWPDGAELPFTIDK

[4] = target: T1, Neuraminidase; set-up: species or system (A/chicken/Shandong/LY/2008(H9N2))
[5] = test system: Influenza A virus; test: Ratio of compound MED to oseltamivir carboxylate MED for influenza A virus (A/duck/China/QJ/01(H5N1)) infected in chick embryo measured after 5 days by hemagglutination assay; assay type: functional
[6] = Inhibition of neuraminidase

**Q.** For CC[C@H](C)[C@H](N)C(=O)Nc1cc(NC(=O)/C=C/c2ccco2)ccc1O.Cl, which MED [1] is on record?
**A.** 2.5 µM

**Q.** And the Ratio [2]?
**A.** 4

**Q.** And the IC50 [3]?
**A.** 103 µM

**Q.** And the IC50 [4]?
**A.** 119 µM

**Q.** And the Ratio [5]?
**A.** 4

**Q.** Which IC50 [6] does the source give for NC(Cn1ccc(=O)c(O)c1)C(=O)N[C@@H](Cc1ccc(O)cc1)C(=O)O (stereo partly specified) here?
**A.** 2.8 µM

**Q.** For NC(Cn1ccc(=O)c(O)c1)C(=O)N[C@@H](Cc1ccccc1)C(=O)O (stereo partly specified), which IC50 [6] is on record?
**A.** 1.8 µM

**Q.** For Cl.N=C(NCCC[C@H](N)C(=O)Nc1cc(NC(=O)/C=C/c2ccco2)ccc1O)N[N+](=O)[O-], which MED [1] is on record?
**A.** 5 µM

**Q.** What about the Ratio [2] of the same compound?
**A.** 4

**Q.** And the IC50 [3]?
**A.** 192 µM

**Q.** What about the IC50 [4] of the same compound?
**A.** 193 µM

**Q.** What about the Ratio [5] of the same compound?
**A.** 4

**Q.** Which results are given for Cl.NCCCC(=O)Nc1cc(NC(=O)/C=C/c2ccco2)ccc1O?
**A.** MED [1]: 5 µM; Ratio [2]: 4; IC50 [3]: 132 µM; IC50 [4]: 167 µM; Ratio [5]: 4

**Q.** For Cl.NCCCC[C@H](N)C(=O)Nc1cc(NC(=O)/C=C/c2ccco2)ccc1O, which MED [1] is on record?
**A.** 5 µM

**Q.** And the Ratio [2]?
**A.** 4

**Q.** What about the IC50 [3] of the same compound?
**A.** 225 µM

**Q.** What about the IC50 [4] of the same compound?
**A.** 215 µM

**Q.** And the Ratio [5]?
**A.** 4

**Q.** Which results are given for Cl.N[C@@H](Cc1c[nH]c2ccccc12)C(=O)Nc1cc(NC(=O)/C=C/c2ccco2)ccc1O?
**A.** MED [1]: 2.5 µM; Ratio [2]: 4; IC50 [3]: 189 µM; IC50 [4]: 194 µM; Ratio [5]: 4

**Q.** Which MED [1] does the source give for Cl.N[C@@H](Cc1ccccc1)C(=O)Nc1cc(NC(=O)/C=C/c2ccco2)ccc1O here?
**A.** 5 µM

**Q.** And the Ratio [2]?
**A.** 4

**Q.** And the IC50 [3]?
**A.** 130 µM

**Q.** And the IC50 [4]?
**A.** 143 µM

**Q.** What about the Ratio [5] of the same compound?
**A.** 4

**Q.** For CC(C)[C@H](N)C(=O)Nc1cc(NC(=O)/C=C/c2ccco2)ccc1O.Cl, which MED [1] is on record?
**A.** 2.5 µM

**Q.** And the Ratio [2]?
**A.** 4

**Q.** What about the IC50 [3] of the same compound?
**A.** 175 µM

**Q.** What about the IC50 [4] of the same compound?
**A.** 165 µM

**Q.** What about the Ratio [5] of the same compound?
**A.** 4

**Q.** Which MED [1] does the source give for CSCC[C@H](N)C(=O)Nc1cc(NC(=O)/C=C/c2ccco2)ccc1O.Cl here?
**A.** 5 µM

**Q.** What about the Ratio [2] of the same compound?
**A.** 4

**Q.** And the IC50 [3]?
**A.** 121 µM

**Q.** What about the IC50 [4] of the same compound?
**A.** 144 µM

**Q.** What about the Ratio [5] of the same compound?
**A.** 4

**Q.** What does the source list for Cl.N[C@@H](CO)C(=O)Nc1cc(NC(=O)/C=C/c2ccco2)ccc1O?
**A.** MED [1]: 5 µM; Ratio [2]: 4; IC50 [3]: 143 µM; IC50 [4]: 158 µM; Ratio [5]: 4

**Q.** What does the source list for C[C@H](N)C(=O)Nc1cc(NC(=O)/C=C/c2ccco2)ccc1O.Cl?
**A.** MED [1]: 5 µM; Ratio [2]: 4; IC50 [3]: 110 µM; IC50 [4]: 91.7 µM; Ratio [5]: 4

**Q.** What does the source list for Cl.NCC(=O)Nc1cc(NC(=O)/C=C/c2ccco2)ccc1O?
**A.** MED [1]: 5 µM; Ratio [2]: 4; IC50 [3]: 139 µM; IC50 [4]: 175 µM; Ratio [5]: 4

**Q.** For C[C@@H](O)[C@H](N)C(=O)Nc1cc(NC(=O)/C=C/c2ccco2)ccc1O.Cl, which MED [1] is on record?
**A.** 5 µM

**Q.** And the Ratio [2]?
**A.** 4

**Q.** What about the IC50 [3] of the same compound?
**A.** 187 µM

**Q.** And the IC50 [4]?
**A.** 200 µM

**Q.** And the Ratio [5]?
**A.** 4

**Q.** What does the source list for CC(C)C[C@H](N)C(=O)Nc1cc(NC(=O)/C=C/c2ccco2)ccc1O.Cl?
**A.** MED [1]: 5 µM; Ratio [2]: 4; IC50 [3]: 148 µM; IC50 [4]: 179 µM; Ratio [5]: 4

**Q.** For Cl.NCCC(=O)Nc1cc(NC(=O)/C=C/c2ccco2)ccc1O, which MED [1] is on record?
**A.** 5 µM

**Q.** And the Ratio [2]?
**A.** 4

**Q.** What about the IC50 [3] of the same compound?
**A.** 108 µM

**Q.** And the IC50 [4]?
**A.** 118 µM

**Q.** What about the Ratio [5] of the same compound?
**A.** 4

**Q.** For Cl.O=C(/C=C/c1ccco1)Nc1ccc(O)c(NC(=O)[C@@H]2C[C@@H](O)CN2)c1, which MED [1] is on record?
**A.** 5 µM

**Q.** What about the Ratio [2] of the same compound?
**A.** 4

**Q.** What about the IC50 [3] of the same compound?
**A.** 109 µM

**Q.** And the IC50 [4]?
**A.** 111 µM

**Q.** And the Ratio [5]?
**A.** 4

**Q.** With Cl.O=C(/C=C/c1ccco1)Nc1ccc(O)c(NC(=O)[C@@H]2CCCN2)c1 as the compound, how does the MED [1] read?
**A.** 5 µM

**Q.** What about the Ratio [2] of the same compound?
**A.** 4

**Q.** And the IC50 [3]?
**A.** 57.8 µM

**Q.** And the IC50 [4]?
**A.** 85.3 µM

**Q.** And the Ratio [5]?
**A.** 4

**Q.** Which MED [1] does the source give for C[C@H](N)C(=O)Nc1cc(NC(=O)/C=C/c2ccc(O)c(O)c2)ccc1O.Cl here?
**A.** 5 µM

**Q.** What about the Ratio [2] of the same compound?
**A.** 4

**Q.** What about the IC50 [3] of the same compound?
**A.** 113 µM

**Q.** And the IC50 [4]?
**A.** 105 µM

**Q.** And the Ratio [5]?
**A.** 4

**Q.** With CC[C@H](C)[C@H](N)C(=O)Nc1cc(NC(=O)/C=C/c2ccc(O)c(O)c2)ccc1O.Cl as the compound, how does the MED [1] read?
**A.** 2.5 µM

**Q.** What about the Ratio [2] of the same compound?
**A.** 4

**Q.** What about the IC50 [3] of the same compound?
**A.** 0.012 µM

**Q.** What about the IC50 [4] of the same compound?
**A.** 0.0017 µM

**Q.** And the Ratio [5]?
**A.** 4

**Q.** For CC(C)[C@H](N)C(=O)Nc1cc(NC(=O)/C=C/c2ccc(O)c(O)c2)ccc1O.Cl, which MED [1] is on record?
**A.** 2.5 µM

**Q.** What about the Ratio [2] of the same compound?
**A.** 4

**Q.** What about the IC50 [3] of the same compound?
**A.** 114 µM

**Q.** And the IC50 [4]?
**A.** 138 µM

**Q.** What about the Ratio [5] of the same compound?
**A.** 4

**Q.** With CC(C)C[C@H](N)C(=O)Nc1cc(NC(=O)/C=C/c2ccc(O)c(O)c2)ccc1O.Cl as the compound, how does the MED [1] read?
**A.** 2.5 µM

**Q.** And the Ratio [2]?
**A.** 4

**Q.** What about the IC50 [3] of the same compound?
**A.** 135 µM

**Q.** What about the IC50 [4] of the same compound?
**A.** 154 µM

**Q.** What about the Ratio [5] of the same compound?
**A.** 4

**Q.** Which results are given for O=c1cc(-c2ccc(O)cc2)oc2cc(O)cc(O)c12 [APIGENIN]?
**A.** Ratio [2]: 4; Ratio [5]: 4

**Q.** Which MED [1] does the source give for CCC(CC)O[C@@H]1C=C(C(=O)O)C[C@H](N)[C@H]1NC(C)=O.Cl [OSELTAMIVIR CARBOXYLATE HYDROCHLORIDE] here?
**A.** 0.625 µM

**Q.** With CCOC(=O)C1=C[C@@H](OC(CC)CC)[C@H](NC(C)=O)[C@@H](N)C1.O=P(O)(O)O [OSELTAMIVIR PHOSPHATE] as the compound, how does the MED [1] read?
**A.** 0.625 µM
